Article PMC3288891 (2012)

What was measured:
[1] = biological target: P180C/P185C PTP1B (protein tyrosine phosphatase 1B) (Homo sapiens, UniProt P18031, P180C/P185C); assay: biochemical
[2] = biological target: wild-type PTP1B (protein tyrosine phosphatase 1B) (Homo sapiens, UniProt P18031); assay: biochemical
[3] = biological target: T1, P180C/E186C PTP1B (protein tyrosine phosphatase 1B) (Homo sapiens, UniProt P18031, E186C/P180C); assay: biochemical
T1 sequence (P18031 1-435 P180C/E186C): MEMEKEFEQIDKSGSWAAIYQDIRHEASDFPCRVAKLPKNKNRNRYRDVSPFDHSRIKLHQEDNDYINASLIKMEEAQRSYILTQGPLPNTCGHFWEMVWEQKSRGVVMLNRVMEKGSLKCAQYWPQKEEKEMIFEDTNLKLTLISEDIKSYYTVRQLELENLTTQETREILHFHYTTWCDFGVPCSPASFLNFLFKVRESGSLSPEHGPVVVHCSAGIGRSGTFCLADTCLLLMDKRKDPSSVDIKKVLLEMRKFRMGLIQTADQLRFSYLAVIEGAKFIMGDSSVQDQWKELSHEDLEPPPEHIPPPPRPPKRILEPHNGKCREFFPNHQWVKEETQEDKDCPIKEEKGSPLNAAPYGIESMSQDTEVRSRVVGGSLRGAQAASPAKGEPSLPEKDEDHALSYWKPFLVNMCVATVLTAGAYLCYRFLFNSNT

[4] = biological target: T1, P180C/E186C PTP1B (protein tyrosine phosphatase 1B); assay: pNPP phosphatase assay with purified enzyme; assay type: biochemical

Chain of P180C/P185C PTP1B (protein tyrosine phosphatase 1B) (P18031 1-321 P180C/P185C limits assumed): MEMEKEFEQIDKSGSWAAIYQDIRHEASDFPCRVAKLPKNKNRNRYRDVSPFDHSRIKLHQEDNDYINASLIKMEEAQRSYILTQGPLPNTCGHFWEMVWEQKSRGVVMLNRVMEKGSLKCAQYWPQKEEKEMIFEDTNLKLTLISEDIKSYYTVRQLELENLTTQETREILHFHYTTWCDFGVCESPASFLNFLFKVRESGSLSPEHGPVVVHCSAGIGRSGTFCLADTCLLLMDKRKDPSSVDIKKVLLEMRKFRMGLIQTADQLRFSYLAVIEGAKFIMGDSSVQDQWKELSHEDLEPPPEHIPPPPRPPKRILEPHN
Chain of wild-type PTP1B (protein tyrosine phosphatase 1B) (P18031 1-321 limits assumed): as the sequence (P18031 1-321 P180C/P185C limits assumed) above, with C180P, C185P counted along it

Structure (SMILES) | Km [1] | Km [2] | Km [3] | IC50 [4]
O=[N+]([O-])c1ccc(OP(=O)(O)O)cc1 [para-nitrophenyl phosphate] | 2030 ± 250 µM | 2290 ± 210 µM | 980 ± 90 µM | –
O=C1OC2(c3ccccc31)c1ccc(O)c([As]3SCCS3)c1Oc1c2ccc(O)c1[As]1SCCS1 [FlAsH-EDT2, 4′,5′-bis(1,3,2-dithioarsolan-2-yl)fluorescein] | – | – | – | ~130 nM
